Source: patent US12343416B2, “Skin engaging member for razor cartridge comprising skin active ingredient” (BIC-VIOLEX S.A., priority 2019, dated 2025)

Columns and labels:
[1] = Retention of skin active ingredient after extrusion of the skin engaging member (process tolerance / thermal stability); assay type: physicochemical; settings: initial concentration 1% in HIPS/PEG/BHT blend; heated to melt and extruded via rotating screw; 150° C. to 300° C., 250-2000 bar
Experimental: Therefore and more particularly, throughout the present description and claims, the expression “thermally tolerant” or “thermally stable” or “process tolerant” should thus be understood that the skin engaging member retains the contained skin active ingredient, after a thermal treatment/processing at about 150 to 300° C., from 2 to 15 minutes and pressure conditions between 250-2000 bar, in processes such as extrusion or injection or injection-molding, in concentration that is detected quantitatively at the end product/article, by applying analytical chemistry methods, such as liquid chromatography. In embodiments that the skin engaging member comprises skin active ingredient capable of treating and/or preventing skin redness or skin irritation and being selected from the group consisting of a) at least one terpenic acid derivative, b) strombine or salt of strombine, combined with a clay, and c) mixtures thereof, the concentration of the skin active ingredient retained after the thermal treatment/processing is about 0.001-100%, particularly 20-80%, more particularly 20-70%, of the initial quantity of skin active ingredient added. […]
The quantity of the skin active ingredient in the skin engaging member can be measured/evaluated by (chromatographic) methods known to the skilled person depending on the nature of the active ingredient. […]

[2] = assay type: physicochemical
From the text: Again, without being bound to theory, one could explain this thermostability by the low volatility related with high molecular weight. Indeed, Glycyrrhizic acid and its salts are widely used in food applications that are intended to be baked and keeping the sweetness.

Row | Compound | reduction of the amount of skin active ingredient compared to the initial concentration, measured in the final skin engaging member [1] | heat stability/tolerance [2]
1 | Dipotassium Glycyrrhizinate/Glycyrrhizate | 30% | heat stable/tolerant
2 | CC1(C)[C@@H](O[C@H]2O[C@H](C(=O)O)[C@@H](O)[C@H](O)[C@H]2O[C@@H]2O[C@H](C(=O)O)[C@@H](O)[C@H](O)[C@H]2O)CC[C@]2(C)[C@H]3C(=O)C=C4[C@@H]5C[C@@](C)(C(=O)O)CC[C@]5(C)CC[C@@]4(C)[C@]3(C)CC[C@@H]12 [Glycyrrhizic acid, (3-beta, 20-beta)-20-carboxy-11-oxo-30-norolean-12-en-β-yl 2-O-beta-D-glucopyranuronosyl-alpha-D-glucopyranosiduronic] |  | heat stable/tolerant
3 | C[C@H]1[C@H](C)CC[C@]2(C)CC[C@]3(C)C(=CC[C@@H]4[C@@]5(C)CC[C@@H](O)[C@](C)(C(=O)O)[C@@H]5CC[C@]43C)[C@H]12 [boswellic acid] | 52.2% | 
